Values joined by “and” are separate entries in the source; they are usually repeats but may differ in a detail not shown here. Equal values may be shown once.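 A five-concentration, 48-hour dose response in 96-well plates underlies each endpoint, interpolated linearly between surrounding concentrations. At the GI50, growth is halved. The concentration for full growth arrest is given as TGI.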
Legend:
Test in all cases: NCI tumour cell line growth inhibition, 48 h
HT29 colon = tested on: HT29 colon
LOX IMVI melanoma = tested on: LOX IMVI melanoma
MDA-MB-231 breast = tested on: MDA-MB-231 breast
MDA-MB-435 = tested on: MDA-MB-435
NCI-H460 lung = tested on: NCI-H460 lung
SF-539 CNS = tested on: SF-539 CNS
SK-MEL-28 melanoma = tested on: SK-MEL-28 melanoma
UACC-62 melanoma = tested on: UACC-62 melanoma
OVCAR-4 ovarian = tested on: OVCAR-4 ovarian
PC-3 prostate = tested on: PC-3 prostate

## COC(=O)C1=C(O)C(C(=O)OC)[C@@]2(O)[C@@H](C(=O)OC)[C@H](C)C[C@@H]1[C@@H]2C(=O)OC (some centres undefined)
HT29 colon
  TGI: 71.3 µM
LOX IMVI melanoma
  TGI: > 100 µM
MDA-MB-231 breast
  TGI: 40.3 µM
MDA-MB-435
  TGI: 32.1 µM
NCI-H460 lung
  TGI: 44.3 µM
SF-539 CNS
  TGI: 34.1 µM
SK-MEL-28 melanoma
  TGI: > 100 µM
UACC-62 melanoma
  TGI: > 100 µM

## O=c1c(-c2ccccc2)c(SCCCN2CCCCC2)n(-c2ccccc2)c(=S)n1-c1ccccc1
LOX IMVI melanoma
  TGI: 32.4 µM
MDA-MB-231 breast
  TGI: 27.9 µM
MDA-MB-435
  TGI: 34.5 µM
NCI-H460 lung
  TGI: 31.5 µM
OVCAR-4 ovarian
  TGI: 58 µM
PC-3 prostate
  TGI: 39.4 µM
SF-539 CNS
  TGI: 30.4 µM
SK-MEL-28 melanoma
  TGI: 33.2 µM
UACC-62 melanoma
  TGI: 30.1 µM

## O=c1[nH]c2ccccc2c2oc3ccccc3c12
HT29 colon
  TGI: > 100 µM
MDA-MB-231 breast
  TGI: > 100 µM
MDA-MB-435
  TGI: > 100 µM
NCI-H460 lung
  TGI: > 100 µM
OVCAR-4 ovarian
  TGI: > 100 µM
PC-3 prostate
  TGI: > 100 µM
SF-539 CNS
  TGI: > 100 µM
SK-MEL-28 melanoma
  TGI: > 100 µM
UACC-62 melanoma
  TGI: > 100 µM

## O=[N+]([O-])c1ccc(N/N=C\c2cc(Br)ccc2O)nc1
HT29 colon
  GI50: 4.27 µM
  TGI: > 100 µM
LOX IMVI melanoma
  GI50: 0.472 µM
  TGI: 2.37 µM
MDA-MB-231 breast
  GI50: 0.511 µM
  TGI: 4.76 µM
MDA-MB-435
  GI50: 1.39 µM
  TGI: > 100 µM
NCI-H460 lung
  GI50: 0.636 µM
  TGI: 2.72 µM
OVCAR-4 ovarian
  GI50: 0.543 µM
  TGI: 4.02 µM
PC-3 prostate
  GI50: 1.67 µM
  TGI: > 100 µM
SF-539 CNS
  GI50: 0.918 µM
  TGI: 4.16 µM
SK-MEL-28 melanoma
  GI50: 2.05 µM
  TGI: > 100 µM
UACC-62 melanoma
  GI50: 1.86 µM
  TGI: 6.15 µM

## O=c1c2ccccc2nc2n1CCc1c-2[nH]c2ccccc12
OVCAR-4 ovarian
  GI50: 18.9 µM
  TGI: 43.8 µM
PC-3 prostate
  TGI: 40.9 µM
SK-MEL-28 melanoma
  TGI: 62.4 µM

## NCCCCNOCCCN
HT29 colon
  TGI: > 100 µM
LOX IMVI melanoma
  TGI: > 100 µM
MDA-MB-435
  TGI: > 100 µM
NCI-H460 lung
  TGI: > 100 µM
OVCAR-4 ovarian
  TGI: > 100 µM
PC-3 prostate
  TGI: > 100 µM
SF-539 CNS
  TGI: > 100 µM
SK-MEL-28 melanoma
  TGI: > 100 µM
UACC-62 melanoma
  TGI: > 100 µM

## COC(=O)C(C)NP(=O)(OCc1cccc(Cn2cnc3c(N)ncnc32)c1)Oc1ccccc1 (centres undefined)
HT29 colon
  GI50: > 100 µM
  TGI: > 100 µM
LOX IMVI melanoma
  GI50: 48.9 µM
  TGI: > 100 µM
MDA-MB-231 breast
  GI50: 51.7 µM
  TGI: > 100 µM
MDA-MB-435
  GI50: > 100 µM
  TGI: > 100 µM
NCI-H460 lung
  GI50: > 100 µM
  TGI: > 100 µM
OVCAR-4 ovarian
  GI50: > 100 µM
  TGI: > 100 µM
PC-3 prostate
  GI50: > 100 µM
  TGI: > 100 µM
SF-539 CNS
  GI50: > 100 µM
  TGI: > 100 µM
SK-MEL-28 melanoma
  GI50: > 100 µM
  TGI: > 100 µM
UACC-62 melanoma
  GI50: 56.3 µM
  TGI: > 100 µM

## CCOC(=O)c1c(Cl)c2c(n1Cc1ccccc1)-c1oncc1CCC2
HT29 colon
  GI50: 2.95 µM
  TGI: 8.52 µM
LOX IMVI melanoma
  GI50: 5.26 µM
  TGI: > 100 µM
MDA-MB-231 breast
  GI50: 3.51 µM
  TGI: > 100 µM
MDA-MB-435
  GI50: 1.4 µM
  TGI: 4.92 µM
NCI-H460 lung
  GI50: 3.62 µM
  TGI: > 100 µM
PC-3 prostate
  GI50: 3.17 µM
  TGI: > 100 µM
UACC-62 melanoma
  GI50: 4.01 µM
  TGI: > 100 µM

## C/C=C(/CCC1NCCc2c1[nH]c1ccccc21)[Si](C)(C)C (centres undefined)
LOX IMVI melanoma
  TGI: 15.2 µM
OVCAR-4 ovarian
  TGI: > 100 µM and 11.9 µM
SF-539 CNS
  TGI: > 100 µM and 13.1 µM
UACC-62 melanoma
  TGI: > 100 µM and 26.5 µM

## CC(C)(C)OC(=O)CC(NC(=O)OCc1ccccc1)NC(=O)OC(C)(C)C (centres undefined)
LOX IMVI melanoma
  GI50: 71.2 µg/mL
MDA-MB-231 breast
  GI50: 52.8 µg/mL
MDA-MB-435
  GI50: 87.9 µg/mL
NCI-H460 lung
  GI50: 39.8 µg/mL
OVCAR-4 ovarian
  GI50: 78.9 µg/mL
SK-MEL-28 melanoma
  GI50: 67.6 µg/mL
UACC-62 melanoma
  GI50: 57.2 µg/mL

Reference: PubChem BioAssay (NCI)
